Experimental data taken from patent US12440567B2, “Aqueous antibody formulation stabilized by antioxidants for parenteral administration” (AMGEN INC., priority 2007, dated 2025).

Columns and labels:
[1] = system: EPO binding to D11; experiment: Binding of EPO to D11 monoclonal antibody after UV-B exposure of the formulation; set-up: species or system human; settings: for EPO binding activity to D11 during UV-B exposure: 0.1 mM antioxidant, UV-B up to 24 hours
Protocol: For the examples below involving exposure to UVB radiation, each sample was exposed to UVB light (λ≈302 nm) for varying times, using a UVP 8W model UVLMS-38 lamp at 4° C. The formulations were then analyzed using size exclusion chromatography high pressure liquid chromatography (SEC-HPLC). Aggregation (measured via SEC-HPLC analysis) and binding (measured using CM5 gold sensor chips) were measured to determine the effect of the antioxidant on aggregation and bioactivity of the therapeutic protein. The binding activity of therapeutic protein to a ligand (e.g. to an antibody or binding partner, or, in cases where the therapeutic was an antibody, binding activity to the specific target antigen or to protein A) was determined as follows. […] The therapeutic protein-binding ligand of interest was injected until the desired immobilization level was achieved (above 5000 response units). Three different therapeutic protein-binding ligands were measured—Antibody A's target antigen, Protein A, and D11 (an antibody that binds to erythropoietin). […] The remaining activated groups were blocked with 1.0 M ethanolamine-HCl, pH 8.5. A standard curve was prepared by using native forms of the therapeutic protein of interest. Native forms of the therapeutic protein were diluted in HBS-EP buffer (pH 7.4) to concentrations between 1 and 5 μg/mL, and then injected on the column, prepared as described above to obtain a standard curve. At the end of each sample run, regeneration buffer was used to wash away any bound therapeutic protein in preparation for subsequent injections. Various UV-stressed antibody formulations were also diluted in HBS-EP buffer (pH 7.4) to a concentration within the standard curve region, and injected to quantitate the loss of bioactivity to its respective ligand-binding partner. […] The protein was exposed to the same conditions as Antibody A and Antibody B for up to 24 hours.

[2] = cited from earlier work
[3] = system: Antibody A (IgG1); experiment: SEC-HPLC aggregation of Antibody A (IgG1) after UV-B exposure; type: physicochemical; settings: for UV-B protection of Antibody A (aggregation, SEC-HPLC): Antibody A 1 mg/mL, pH 4.50 (glycolic, lactic acid) or pH 5.00 (citric acid), UV 1 hr
[4] = PABA: doses as high as 12 grams per day; cited from earlier work
[5] = system: Antibody A binding to its target antigen; experiment: Binding of Antibody A to its target antigen (CM5 sensor chip) after UV-B exposure of the formulation; settings: 20 mM antioxidant; pH 5.20 acetate buffer; 302 nm UV light over 24 hours
Protocol: (§1) For the examples below involving exposure to UVB radiation, each sample was exposed to UVB light (λ≈302 nm) for varying times, using a UVP 8W model UVLMS-38 lamp at 4° C. The formulations were then analyzed using size exclusion chromatography high pressure liquid chromatography (SEC-HPLC). Aggregation (measured via SEC-HPLC analysis) and binding (measured using CM5 gold sensor chips) were measured to determine the effect of the antioxidant on aggregation and bioactivity of the therapeutic protein. The binding activity of therapeutic protein to a ligand (e.g. to an antibody or binding partner, or, in cases where the therapeutic was an antibody, binding activity to the specific target antigen or to protein A) was determined as follows. […] The therapeutic protein-binding ligand of interest was injected until the desired immobilization level was achieved (above 5000 response units). Three different therapeutic protein-binding ligands were measured—Antibody A's target antigen, Protein A, and D11 (an antibody that binds to erythropoietin). […] The remaining activated groups were blocked with 1.0 M ethanolamine-HCl, pH 8.5. […] Various UV-stressed antibody formulations were also diluted in HBS-EP buffer (pH 7.4) to a concentration within the standard curve region, and injected to quantitate the loss of bioactivity to its respective ligand-binding partner.

[6] = system: Antibody A binding to protein A; experiment: Binding of Antibody A to protein A (CM5 sensor chip) after UV-B exposure of the formulation; settings: 20 mM antioxidant; pH 5.20 acetate buffer; 302 nm UV light over 24 hours
Protocol: as §1

[7] = system: EPO; experiment: SEC-HPLC aggregation/degradation of EPO after UV-B exposure; type: physicochemical, human; settings: 20 mM antioxidant; 1 mg/mL EPO, 25 mM sodium phosphate, 125 mM sodium chloride, pH 6.90; 302 nm UV-B 24 hours
Protocol: For the examples below involving exposure to UVB radiation, each sample was exposed to UVB light (λ≈302 nm) for varying times, using a UVP 8W model UVLMS-38 lamp at 4° C. The formulations were then analyzed using size exclusion chromatography high pressure liquid chromatography (SEC-HPLC). Aggregation (measured via SEC-HPLC analysis) and binding (measured using CM5 gold sensor chips) were measured to determine the effect of the antioxidant on aggregation and bioactivity of the therapeutic protein. The SEC-HPLC conditions were as follows: a G3000 TOSOH SWXL column was used and the flowrate was set at 0.5 mL/min. […] FIG. 4 (EPO), FIG. 5 (anti-streptavidin), and FIG. 6 (Antibody A) show SEC-HPLC chromatograms of each proteins following exposure to 302 nm UV-B light for 24 hours. […] Each formulation was then exposed to 302 nm UV-B light for 24 hours. The protein formulation was then analyzed using SEC-HPLC.

[8] = system: Antibody B binding to protein A; experiment: Binding of Antibody B to protein A after UV-B exposure of the formulation; settings: 20 mM additive; pH 6.90 phosphate buffer; 0-24 hours UV-B
Protocol: For the examples below involving exposure to UVB radiation, each sample was exposed to UVB light (λ≈302 nm) for varying times, using a UVP 8W model UVLMS-38 lamp at 4° C. The formulations were then analyzed using size exclusion chromatography high pressure liquid chromatography (SEC-HPLC). Aggregation (measured via SEC-HPLC analysis) and binding (measured using CM5 gold sensor chips) were measured to determine the effect of the antioxidant on aggregation and bioactivity of the therapeutic protein.
The binding activity of therapeutic protein to a ligand (e.g. to an antibody or binding partner, or, in cases where the therapeutic was an antibody, binding activity to the specific target antigen or to protein A) was determined as follows. […] The therapeutic protein-binding ligand of interest was injected until the desired immobilization level was achieved (above 5000 response units). Three different therapeutic protein-binding ligands were measured—Antibody A's target antigen, Protein A, and D11 (an antibody that binds to erythropoietin). […] The remaining activated groups were blocked with 1.0 M ethanolamine-HCl, pH 8.5.
A standard curve was prepared by using native forms of the therapeutic protein of interest. Native forms of the therapeutic protein were diluted in HBS-EP buffer (pH 7.4) to concentrations between 1 and 5 μg/mL, and then injected on the column, prepared as described above to obtain a standard curve. At the end of each sample run, regeneration buffer was used to wash away any bound therapeutic protein in preparation for subsequent injections.
Various UV-stressed antibody formulations were also diluted in HBS-EP buffer (pH 7.4) to a concentration within the standard curve region, and injected to quantitate the loss of bioactivity to its respective ligand-binding partner.

[9] = system: anti-streptavidin mAb (IgG2); experiment: SEC-HPLC aggregation of anti-streptavidin (IgG2) after UV-B exposure; type: physicochemical; settings: 20 mM antioxidant; 1 mg/mL anti-streptavidin, 10 mM sodium acetate, 5% sorbitol, pH 5.00; 302 nm UV-B 24 hours
[10] = system: anti-streptavidin (IgG2 antibody); experiment: Thermal aggregation of anti-streptavidin at 52° C. for 10 days; type: physicochemical; settings: 5% glycerol; anti-streptavidin, 50 mM sodium acetate pH 5.00; 10 days 52° C.
Protocol: The SEC-HPLC conditions were as follows: a G3000 TOSOH SWXL column was used and the flowrate was set at 0.5 mL/min. […] Anti-streptavidin was formulated in 50 mM sodium acetate at pH 5.00. These formulations were not exposed to UV radiation but assessed on their thermal stability.

[11] = Color change of the antioxidant upon light; type: physicochemical
Excerpt: P-amino benzoic acid (PABA) has a relatively powerful antioxidant effect.

[12] = system: Antibody A; experiment: Discoloration (yellowing) of Antibody A formulations after UV-B exposure; type: physicochemical; settings: 20 mM and 50 mM pyridoxine; Antibody A 30 mg/mL; UV-B 4 hours
[13] = 100 mM, Antibody A 1 mg/mL pH 5.00, UV 3 hours
[14] = 20 mM benzoic acid derivative, Antibody A 5 mg/mL, 20 mM sodium acetate pH 5.00, UV-B 4° C. 3 hours
[15] = 5 mM or 1 mM preservative, Antibody A 1 mg/mL pH 5.00, UV 3 hours

Q: Which “EPO activity (binding to D11) after UV-B” value ([1]; 20 mM racemic N-acetyl-tryptophan, 40 kU/mL EPO pH 6.90, UV 0 to 24 hours) does the source give for `CC(=O)N[C@@H](Cc1c[nH]c2ccccc12)C(=O)O` (racemic) [N-acetyl-tryptophan] here?
A: preserved

Q: What about the solubility [2] of the same compound?
A: more soluble than free tryptophan

Q: Which “aggregation of Antibody A” value ([3]; 25 mM cytosine (FIG. 21), Antibody A 1 mg/mL pH 5.00, UV 1, 2, or 3 hours) does the source give for `Nc1cc[nH]c(=O)n1` [Cytosine, cytosine] here?
A: able to prevent aggregation

Q: For `O=C(O)CO` [Glycolic acid, glycolic acid], which “UV-B protection of Antibody A (aggregation, SEC-HPLC)” value ([3]; 100 mM) is on record?
A: most effective

Q: With `CCCOC(=O)c1cc(O)c(O)c(O)c1` [Propyl gallate, propyl gallate] as the compound, how does the “aggregation of Antibody A (SEC-HPLC)” value ([3]; 10 mM propyl gallate, pH 5.00, UV 3 hours) read?
A: able to significantly reduce the amount of aggregation

Q: Which “aggregation of Antibody A (SEC-HPLC)” value ([3]; thiamine as low as 5 mM, Antibody A 3 mg/mL, UV-B 4 hours) does the source give for `Cc1ncc(C[n+]2csc(CCO)c2C)c(N)n1` [Thiamine, thiamine] here?
A: able to significantly inhibit Antibody A aggregation

Q: What about the toxicity in humans [4] of the same compound?
A: no known toxicity

Q: And the solubility [2]?
A: more soluble than the cinnamic acids or the benzoic acid derivatives

Q: Which “EPO binding activity to D11 during UV-B exposure” value [1] does the source give for `O=C(O)/C=C/c1ccc(O)c(O)c1` [caffeic acid] here?
A: able to protect the EPO from degradation and preserve its binding activity

Q: Which results are given for `O=C(/C=C/c1ccc(O)c(O)c1)O[C@@H]1C[C@](O)(C(=O)O)C[C@@H](O)[C@H]1O` [chlorogenic acid]?
A: binding of Antibody A to its target antigen after UV exposure [5]: preserved; amount of aggregate of Antibody A (SEC-HPLC) ([3]; 20 mM antioxidant, 1 mg/mL Antibody A, 10 mM sodium acetate, 9% sucrose, pH 5.20, 302 nm UV-B 24 hours): dramatically reduced; binding of Antibody A to protein A after UV exposure [6]: preserved; amount of aggregate of EPO (SEC-HPLC) [7]: dramatically reduced; binding of EPO to D11 mAb after UV light exposure ([1]; 20 mM antioxidant, up to 24 hours UV): able to significantly preserve; binding of Antibody B to protein A after UV-B exposure [8]: prevented UV-B induced degradation; amount of aggregate of anti-streptavidin (SEC-HPLC) [9]: dramatically reduced

Q: For `O=C(O)CC(O)(CC(=O)O)C(=O)O` [citric acid], which “UV-B protection of Antibody A (aggregation, SEC-HPLC)” value ([3]; 100 mM) is on record?
A: fairly weak

Q: For `Oc1cc(O)c2c(c1)O[C@H](c1ccc(O)c(O)c1)[C@H](O)C2` [epicatechin], which solubility [2] is on record?
A: limited solubility

Q: With `O=C(O)/C=C/C(=O)O` [fumaric acid] as the compound, how does the “aggregation of Antibody A (SEC-HPLC)” value [3, 13] read?
A: able to protect Antibody A from aggregation

Q: With `O=C(O)c1cc(O)c(O)c(O)c1` [gallic acid] as the compound, how does the “aggregation of Antibody A (SEC-HPLC)” value [3, 14] read?
A: able to significantly decrease the amount of aggregation

Q: For `OCC(O)CO` [glycerol], which “effect of added glycerol on thermal aggregation caused by ferulic and coumaric acid” value [10] is on record?
A: counter-acted that thermal aggregation

Q: For `Cc1cccc(O)c1` [m-cresol], which “aggregation of Antibody A (SEC-HPLC)” value [3, 15] is on record?
A: able to significantly decrease the amount of aggregation

Q: With `O=C(O)c1ccc(O)cc1` [p-hydroxybenzoic acid] as the compound, how does the “aggregation of Antibody A (SEC-HPLC)” value [3, 14] read?
A: able to significantly decrease the amount of aggregation

Q: For `Oc1ccccc1` [phenol], which “aggregation of Antibody A (SEC-HPLC)” value [3, 15] is on record?
A: able to significantly decrease the amount of aggregation

Q: Which “aggregation of Antibody A (SEC-HPLC)” value [3, 14] does the source give for `O=C(O)c1ccc(O)c(O)c1` [protocatechuic acid] here?
A: able to significantly decrease the amount of aggregation

Q: Which results are given for `Cc1ncc(CO)c(CO)c1O` [pyridoxine]?
A: color change upon light [11]: changes to an orange-brown color upon light; appearance of formulation upon exposure to UV radiation [12]: caused the formulation to appear yellow; oxidation and aggregation of Antibody A ([3]; 20 mM and 50 mM pyridoxine, Antibody A 30 mg/mL, UV-B 4 hours): did protect the protein from oxidation and aggregation; solubility [2]: highly soluble

Q: Which “aggregation of Antibody A (SEC-HPLC)” value [3, 13] does the source give for `O=C(O)C1=C[C@@H](O)[C@@H](O)[C@H](O)C1` [shikimic acid] here?
A: able to protect Antibody A from aggregation

Q: Which “EPO binding activity to D11 during UV-B exposure” value [1] does the source give for `COc1cc(/C=C/C(=O)O)cc(OC)c1O` [sinapic acid] here?
A: able to protect the EPO from degradation and preserve its binding activity

Q: Which “EPO binding to D11 after UV” value ([1]; 5 mM sulisobenzone, EPO 40 kU/mL, pH 6.90, UV 0-8 hours at 4° C.) does the source give for `COc1cc(O)c(C(=O)c2ccccc2)cc1S(=O)(=O)O` [sulisobenzone] here?
A: able to protect EPO binding to D11

Q: For `COc1cc(C(=O)O)cc(OC)c1O` [syringic acid], which “aggregation of Antibody A (SEC-HPLC)” value [3, 14] is on record?
A: able to significantly decrease the amount of aggregation

Q: For `COc1cc(C(=O)O)ccc1O` [vanillic acid], which “aggregation of Antibody A (SEC-HPLC)” value [3, 14] is on record?
A: able to significantly decrease the amount of aggregation

Q: With catechin as the compound, how does the “percent binding of EPO to D11 after UV” value ([1]; 20 mM catechin, EPO 40 kU/mL, 25 mM sodium phosphate, 125 mM sodium chloride, 0.005% Tween-80, pH 6.90, UV 0-8 hours) read?
A: able to preserve EPO binding
